{"source": "paper PMC4689406", "about": "“(R)-NODAGA-PSMA: A Versatile Precursor for Radiometal Labeling and Nuclear Imaging of PSMA-Positive Tumors” (PLoS ONE, 2015)", "key": {"[1]": {"assay": "Lipophilicity (LogD, pH 7.4), shake-flask method", "format": "physicochemical", "settings": "octanol/PBS pH 7.4, shake-flask", "procedure": "The lipophilicity (LogD, pH 7.4) was estimated by the “shake-flask” method (S3 Appendix).\nThe mixture was vortexed for 1 h to reach the equilibrium and then centrifuged (3000 rpm) for 10 min. From each phase, an aliquot (100 μL) was pipetted out and measured in a γ-counter. Each measurement was repeated five times. Care was taken to avoid cross-contamination between the phases. The partition coefficient was calculated as the average log ratio of the radioactivity in the organic fraction and the PBS fraction."}, "LNCaP xenografts": {"tested_on": "LNCaP xenografts", "assay": "Biodistribution in LNCaP xenografts", "format": "in vivo, Balb/C nude mice", "settings": "for Adrenal (biodistribution) / Blood (biodistribution) / Heart (biodistribution) / Intestine (biodistribution) / Kidney (biodistribution) / LNCaP-tumor (tumor uptake, biodistribution) / Lung (biodistribution) / Muscle (biodistribution) / Pancreas (biodistribution) / Spleen (biodistribution) / Stomach (biodistribution) / Bone (biodistribution) / Liver (biodistribution) / Tumor/blood / Tumor/kidney / Tumor/muscle: 10 pmol i.v., LNCaP mice; for Tumor/blood / Tumor/kidney / Tumor/muscle: ratio", "procedure": "Female athymic Balb/C nude mice (age: 4–6 weeks, weight: 17–20 g) were purchased from Janvier, France. […] All animal experiments were conducted in strict accordance with the recommendations in the Guide for the Care and Use of Laboratory Animals of the National Institutes of Health. […]"}, "PSMA on LNCaP cells": {"biological_target": "T1, PSMA on LNCaP cells (Homo sapiens, UniProt Q04609)", "T1 construct": "host or cells: LNCaP cells", "T1 sequence (Q04609 whole entry)": "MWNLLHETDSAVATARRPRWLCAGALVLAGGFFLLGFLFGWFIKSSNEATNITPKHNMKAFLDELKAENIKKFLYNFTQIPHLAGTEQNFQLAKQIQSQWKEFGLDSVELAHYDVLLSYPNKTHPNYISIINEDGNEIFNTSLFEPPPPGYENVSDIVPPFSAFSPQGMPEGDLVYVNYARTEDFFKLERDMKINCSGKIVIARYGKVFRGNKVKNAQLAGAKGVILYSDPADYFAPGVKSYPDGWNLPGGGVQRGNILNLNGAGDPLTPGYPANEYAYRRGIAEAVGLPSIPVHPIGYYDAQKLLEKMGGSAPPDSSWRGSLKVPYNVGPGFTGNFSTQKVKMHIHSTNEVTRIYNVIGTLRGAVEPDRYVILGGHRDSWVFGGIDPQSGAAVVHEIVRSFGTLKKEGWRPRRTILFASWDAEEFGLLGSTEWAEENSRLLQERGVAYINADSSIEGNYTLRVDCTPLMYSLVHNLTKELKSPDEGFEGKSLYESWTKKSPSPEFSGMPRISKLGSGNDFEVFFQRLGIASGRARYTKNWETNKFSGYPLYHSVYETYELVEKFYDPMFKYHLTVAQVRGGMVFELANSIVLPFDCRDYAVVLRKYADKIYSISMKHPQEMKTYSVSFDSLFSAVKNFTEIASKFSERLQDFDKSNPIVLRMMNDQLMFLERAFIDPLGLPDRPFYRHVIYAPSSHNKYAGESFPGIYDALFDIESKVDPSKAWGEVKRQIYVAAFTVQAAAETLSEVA", "assay": "Saturation binding study on intact LNCaP cells", "settings": "120 min at 4°C", "procedure": "The next day, the medium was removed, the cells washed and incubated for 1 h at 37°C with fresh binding buffer (RPMI Medium 1640-GlutaMAX containing 1% FBS, 100 U/mL penicillin and 100 μg/mL streptomycin, 50 mM Hepes, 50 μg/mL bacitracin, 0.5% BSA). Afterwards, the plates were placed on ice for 30 min followed by incubation with increasing concentrations of either ^68/natGa-CC34, ^64/natCu-CC34, ^111/natIn-CC34 and ^111/[…]-617 (1-100 nM) in phosphate-buffered saline binding buffer pH 7.4. After the addition of the radioligands, the cells were incubated for 120 min at 4°C. […] The cells were washed twice with ice-cold PBS, followed by solubilization with 1 N NaOH and the cell-associated radioactivity was measured using a gamma-counter. Specific binding was plotted against the total molar concentration of the added radiotracer. […] For all the cell studies the values are normalized for 1x10^6 cells per well and all data are from two independent experiments with triplicates in each experiment."}, "[2]": {"settings": "1 h p.i. blocked (co-injected 20 nmol PMPA)"}}}
{"smiles": "O=C([O-])CN(CCN(CC(=O)[O-])Cc1cc(CCC(=O)NCCCCCC(=O)NCCCC[C@H](NC(=O)N[C@@H](CCC(=O)O)C(=O)O)C(=O)O)ccc1[O-])Cc1cc(CCC(=O)O)ccc1[O-].[68Ga+3].[OH3+]", "note": "[^68Ga-HBED-CC-PSMA, HBED-CC-Ahx-Lys-NH-CO-NH-Glu]", "values": [{"measurement": "LogDoctanol/PBS", "setting": "[1]", "result": "-4.06 ± 0.10"}, {"measurement": "Adrenal (biodistribution)", "setting": "LNCaP xenografts; [2]", "result": "1.1±0.5", "unit": "%IA/g"}, {"measurement": "Blood (biodistribution)", "setting": "LNCaP xenografts; [2]", "result": "0.4±0.04", "unit": "%IA/g"}, {"measurement": "Heart (biodistribution)", "setting": "LNCaP xenografts; [2]", "result": "0.2±0.06", "unit": "%IA/g"}, {"measurement": "Intestine (biodistribution)", "setting": "LNCaP xenografts; [2]", "result": "0.3±0.04", "unit": "%IA/g"}, {"measurement": "Kidney (biodistribution)", "setting": "LNCaP xenografts; [2]", "result": "11±3", "unit": "%IA/g"}, {"measurement": "LNCaP-tumor (tumor uptake, biodistribution)", "setting": "LNCaP xenografts; [2]", "result": "4.1±1.2", "unit": "%IA/g"}, {"measurement": "Lung (biodistribution)", "setting": "LNCaP xenografts; [2]", "result": "0.7±0.2", "unit": "%IA/g"}, {"measurement": "Muscle (biodistribution)", "setting": "LNCaP xenografts; [2]", "result": "0.2±0.1", "unit": "%IA/g"}, {"measurement": "Pancreas (biodistribution)", "setting": "LNCaP xenografts; [2]", "result": "0.3±0.04", "unit": "%IA/g"}, {"measurement": "Spleen (biodistribution)", "setting": "LNCaP xenografts; [2]", "result": "2.1±0.06", "unit": "%IA/g"}, {"measurement": "Stomach (biodistribution)", "setting": "LNCaP xenografts; [2]", "result": "0.3±0.01", "unit": "%IA/g"}, {"measurement": "Adrenal (biodistribution)", "setting": "LNCaP xenografts; 1 h p.i.", "result": "23±4", "unit": "%IA/g"}, {"measurement": "Blood (biodistribution)", "setting": "LNCaP xenografts; 1 h p.i.", "result": "0.2±0.04", "unit": "%IA/g"}, {"measurement": "Bone (biodistribution)", "setting": "LNCaP xenografts; 1 h p.i.", "result": "0.5±0.05", "unit": "%IA/g"}, {"measurement": "Heart (biodistribution)", "setting": "LNCaP xenografts; 1 h p.i.", "result": "0.6±0.06", "unit": "%IA/g"}, {"measurement": "Intestine (biodistribution)", "setting": "LNCaP xenografts; 1 h p.i.", "result": "0.5±0.1", "unit": "%IA/g"}, {"measurement": "Kidney (biodistribution)", "setting": "LNCaP xenografts; 1 h p.i.", "result": "208±4", "unit": "%IA/g"}, {"measurement": "LNCaP-tumor (tumor uptake, biodistribution)", "setting": "LNCaP xenografts; 1 h p.i.", "result": "15.8±1.4", "unit": "%IA/g"}, {"measurement": "Liver (biodistribution)", "setting": "LNCaP xenografts; 1 h p.i.", "result": "0.4±0.01", "unit": "%IA/g"}, {"measurement": "Lung (biodistribution)", "setting": "LNCaP xenografts; 1 h p.i.", "result": "3.5±0.2", "unit": "%IA/g"}, {"measurement": "Muscle (biodistribution)", "setting": "LNCaP xenografts; 1 h p.i.", "result": "0.6±0.06", "unit": "%IA/g"}, {"measurement": "Pancreas (biodistribution)", "setting": "LNCaP xenografts; 1 h p.i.", "result": "1.4±0.3", "unit": "%IA/g"}, {"measurement": "Spleen (biodistribution)", "setting": "LNCaP xenografts; 1 h p.i.", "result": "31±6", "unit": "%IA/g"}, {"measurement": "Stomach (biodistribution)", "setting": "LNCaP xenografts; 1 h p.i.", "result": "0.7±0.1", "unit": "%IA/g"}, {"measurement": "Adrenal (biodistribution)", "setting": "LNCaP xenografts; 2 h p.i.", "result": "23±0.8", "unit": "%IA/g"}, {"measurement": "Bone (biodistribution)", "setting": "LNCaP xenografts; 2 h p.i.", "result": "0.4±0.2", "unit": "%IA/g"}, {"measurement": "Heart (biodistribution)", "setting": "LNCaP xenografts; 2 h p.i.", "result": "0.6±0.02", "unit": "%IA/g"}, {"measurement": "Intestine (biodistribution)", "setting": "LNCaP xenografts; 2 h p.i.", "result": "0.5±0.2", "unit": "%IA/g"}, {"measurement": "Kidney (biodistribution)", "setting": "LNCaP xenografts; 2 h p.i.", "result": "211±29", "unit": "%IA/g"}, {"measurement": "LNCaP-tumor (tumor uptake, biodistribution)", "setting": "LNCaP xenografts; 2 h p.i.", "result": "14.8±2.2", "unit": "%IA/g"}, {"measurement": "Liver (biodistribution)", "setting": "LNCaP xenografts; 2 h p.i.", "result": "0.4±0.05", "unit": "%IA/g"}, {"measurement": "Lung (biodistribution)", "setting": "LNCaP xenografts; 2 h p.i.", "result": "3.2±0.2", "unit": "%IA/g"}, {"measurement": "Muscle (biodistribution)", "setting": "LNCaP xenografts; 2 h p.i.", "result": "0.6±0.2", "unit": "%IA/g"}, {"measurement": "Pancreas (biodistribution)", "setting": "LNCaP xenografts; 2 h p.i.", "result": "2±0.5", "unit": "%IA/g"}, {"measurement": "Spleen (biodistribution)", "setting": "LNCaP xenografts; 2 h p.i.", "result": "29±2", "unit": "%IA/g"}, {"measurement": "Stomach (biodistribution)", "setting": "LNCaP xenografts; 2 h p.i.", "result": "1±0.6", "unit": "%IA/g"}, {"measurement": "reduction of the tumor uptake (blocking)", "setting": "LNCaP xenografts; LNCaP tumor, 1 h p.i., co-injection of 20 nmol PMPA", "result": "about 75%"}, {"measurement": "Tumor/blood", "setting": "LNCaP xenografts; 1 h p.i.", "result": "68±4"}, {"measurement": "Tumor/kidney", "setting": "LNCaP xenografts; 1 h p.i.", "result": "0.08±0.01"}, {"measurement": "Tumor/muscle", "setting": "LNCaP xenografts; 1 h p.i.", "result": "29±6"}, {"measurement": "Tumor/blood", "setting": "LNCaP xenografts; 2 h p.i.", "result": "83±15"}, {"measurement": "Tumor/kidney", "setting": "LNCaP xenografts; 2 h p.i.", "result": "0.07±0.02"}, {"measurement": "Tumor/muscle", "setting": "LNCaP xenografts; 2 h p.i.", "result": "24±3"}, {"measurement": "Bmax (maximum number of binding sites)", "setting": "PSMA on LNCaP cells", "result": "0.41 ± 0.02", "unit": "nM"}, {"measurement": "Kd", "setting": "PSMA on LNCaP cells; non-specific binding with 1 μM PMPA, read-out: Kd (dissociation constant)", "result": "2.9 ± 0.6", "unit": "nM"}]}
